Test results taken from patent publication US9096591B2, “Tetracyclic compounds” (Medivation Technologies, Inc., priority 2007, dated 2015).
Like-named read-outs stand apart in the source and are kept apart here. Blank lines part the entries; values can stand above or below the compound they belong to.

Experiments:
[1] = target: T1, human recombinant adrenergic α2B receptor (Homo sapiens, UniProt P18089); assay: Adrenergic α2B radioligand binding ([3H]Rauwolscine); parameters: Inhibition of ligand binding, Adren. alpha2B: concentration or dose not given beside the values; conditions: percent inhibition of specific binding
T1 construct: expressed in transfected cells; host or cells: CHO-K1 cells
T1 sequence (P18089 1-450): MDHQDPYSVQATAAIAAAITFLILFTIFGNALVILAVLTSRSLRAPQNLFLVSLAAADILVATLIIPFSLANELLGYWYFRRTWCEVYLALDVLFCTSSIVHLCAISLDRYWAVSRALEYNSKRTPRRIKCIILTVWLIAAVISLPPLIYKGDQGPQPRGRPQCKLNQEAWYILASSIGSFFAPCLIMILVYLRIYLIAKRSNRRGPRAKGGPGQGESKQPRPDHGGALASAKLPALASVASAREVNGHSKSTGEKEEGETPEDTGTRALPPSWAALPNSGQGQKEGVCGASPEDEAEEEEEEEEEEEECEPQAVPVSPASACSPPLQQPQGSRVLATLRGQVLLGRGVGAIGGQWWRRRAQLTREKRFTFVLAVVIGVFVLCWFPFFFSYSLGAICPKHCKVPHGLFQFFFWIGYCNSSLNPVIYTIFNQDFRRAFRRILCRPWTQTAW
Procedure, shortened: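 Membranes from CHO-K1 cells expressing the receptor, in 50 mM Tris-HCl pH 7.4 with 12.5 mM MgCl2, 1 mM EDTA, 0.2% BSA, incubated with compounds and 2.5 nM [3H]Rauwolscine for 60 minutes at 25 °C.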

rat brain mitochondria = assay: Ca2+-induced swelling of mitochondria (MPT pore opening); assay type: biochemical, Wistar rats; conditions: for A540 increase in mitochondrial suspension after addition of 100 μM of compound: 100 μM compound
Method: Rat liver and brain mitochondria were prepared from male Wistar rats. The rats were euthanized in a CO2 chamber followed by decapitation the procedure being in compliance with the Guidelines for Animal Experiments at IPAC RAS. […]
Brain mitochondria were isolated from the pooled forebrains of two rats. The modified method of Sims was used to isolate and purify brain mitochondria in a Percoll gradient. The brain was homogenized in “buffer A” (225 mM mannitol, 75 mM sucrose, 5 mM HEPES, 1 mM EGTA, pH 7.4 [KOH]) and centrifuged for 10 min at 1300 g. The supernatant was centrifuged for 10 min at 10000 g, and then the pellet was suspended in 15% Percoll and layered on a discontinuous gradient consisting of 40 and 23% Percoll, respectively, which was then centrifuged for 10 min at 30000 g without using brakes. The mitochondria were collected from the interface of the lower two layers and after resuspension in “buffer A”, the suspension was centrifuged at 16600 g for 10 min, then the pellet was resuspended in “buffer A”, BSA (10 mg/mL) was added to bind free fatty acids; and the suspensions was centrifuged again at 6300 g for 10 min. Following centrifugation the pelleted mitochondria were re-suspended in isolation medium without EGTA to achieve a protein concentration of 15-20 mg/ml.
Mitochondrial swelling caused by influx of solutes through open PT pores results in an increase in light transmission (i.e., a reduced turbidity). This turbidity change offers a convenient and frequently used assay of the MPT by measurement of absorbance in mitochondrial suspensions. In the present study, the MPT induced by Ca^2+ and inorganic phosphate (Ca/Pi) was monitored by absorbance changes at 540 nm in a cuvette in a Beckman DU 640 spectrophotometer in 1 ml of buffer A plus 0.8 μM rotenone, 5 mM succinate, 1 mM KH2PO4 and 0.5 mg or 0.2 mg protein of isolated liver or brain mitochondria, accordingly. Reaction was started by the addition of triggering agent (Ca^2+). Pre-treatment and reaction were performed at 30° C. Swelling rate was quantified as ΔA540/min/mg, calculated, in all cases, from a tangent to the steepest portion of the plot of A540 versus time.
Ca^2+-induced Swelling of mitochondria was used as the primary screening test for compounds influence on MPT pore opening. […] But the inhibition of swelling may be connected not only with direct inhibition of MPT pore opening but also with the impairment of respiratory function of mitochondria and with the compounds action on calcium transport into mitochondria. For the primary estimation of these possibilities the mitochondrial membrane potential and calcium retention capacity of mitochondria were measured. […] New synthesized compounds (except C-14 and C-43) alone induced an increase of brain mitochondria suspension turbidity. The mechanism of such effect needs additional investigations.

[2] = system: synaptosomes of cortex of rat brain; assay: Glutamate-induced 45Ca2+ uptake into synaptosomes; assay type: biochemical, Wistar rats; conditions: for % Ca of control (control-100%), glutamate-induced 45Ca2+ uptake into synaptosomes: rat cortex synaptosomes
Procedure, shortened: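 Cortical synaptosomes (P2 fraction) from 9-10-day-old Wistar rats, ~1.5-2 mg/ml protein in HEPES-buffered saline with glucose, pH 7.4, stimulated 5 min with 200 μM glutamate at 37° C. 45Ca2+ uptake measured by filtration and scintillation counting; specific uptake with compound expressed as percentage of glutamate-induced uptake, each corrected for unstimulated uptake.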

[3] = read-out: IC50, Ca2+-induced (25-50 μM) swelling of brain mitochondria, rat brain mitochondria, Ca2+ 25-50 μM

SMILES: CN1CCc2c(c3cc(Cl)ccc3n2CCc2ccc(C(F)(F)F)nc2)C1 [Compound 250]
- Inhibition of ligand binding, Adren. alpha2B [1]: 108%

- IC50 (rat brain mitochondria; concentration reducing to 50% the initial rate of turbidity fall after calcium addition, read-out: IC50, decrease of calcium-induced swelling of brain mitochondria): ~6 µM
- IC50 (rat brain mitochondria; [3]): 6.25 ± 6.25 µM
SMILES: CN1CCc2c(c3cc(Cl)ccc3n2CCc2nc(-c3ccccc3)cs2)C1 [Compound C1-8]
- A540 increase in mitochondrial suspension after addition of 100 μM of compound (rat brain mitochondria; rat brain mitochondria): 25 rel.units
- inhibition of glutamate-induced 45Ca2+ uptake into synaptosomes ([2]; 1-5 μM): ~14%
- glutamate-induced 45Ca2+ uptake into synaptosomes of rat cortex, % of control ([2]; 50-100 μM): 122%
- % Ca of control (control-100%), glutamate-induced 45Ca2+ uptake into synaptosomes ([2]; compound 0.1 μM): 99.2 ± 1.4%
- % Ca of control (control-100%), glutamate-induced 45Ca2+ uptake into synaptosomes ([2]; compound 0.5 μM): 96.7 ± 2.4%
- % Ca of control (control-100%), glutamate-induced 45Ca2+ uptake into synaptosomes ([2]; compound 1 μM): 86.1 ± 0.1%
- % Ca of control (control-100%), glutamate-induced 45Ca2+ uptake into synaptosomes ([2]; compound 5 μM): 87.7 ± 2.7%
- % Ca of control (control-100%), glutamate-induced 45Ca2+ uptake into synaptosomes ([2]; compound 10 μM): 99.3 ± 3.0%
- % Ca of control (control-100%), glutamate-induced 45Ca2+ uptake into synaptosomes ([2]; compound 50 μM): 122.4 ± 1.6%
- % Ca of control (control-100%), glutamate-induced 45Ca2+ uptake into synaptosomes ([2]; compound 100 μM): 121.7 ± 13.9%

SMILES: Cc1ccc2c(c1)c1c(n2CCc2ccc(C)nc2)CCN(C)C1 [Dimebon, dimebon, reference compound]
- Inhibition of ligand binding, Adren. alpha2B [1]: 112%
- A540 increase in mitochondrial suspension after addition of 100 μM of compound (rat brain mitochondria; rat brain mitochondria): 1 rel.units
- IC50 (rat brain mitochondria; [3]): 66 ± 26 µM
- concentration at which glutamate-induced 45Ca2+ uptake into synaptosomes was inhibited [2]: 0.25 to 10 µM
- inhibition of glutamate-induced 45Ca2+ uptake into synaptosomes ([2]; 1 μM (maximal inhibition)): 40%
- glutamate-induced 45Ca2+ uptake into synaptosomes of rat cortex, % Ca of control (control-100%) ([2]; C 0.1 μM): 120 ± 3.3%
- glutamate-induced 45Ca2+ uptake into synaptosomes of rat cortex, % Ca of control (control-100%) ([2]; C 0.1 μM, listed as dimebon): 120.4%
- glutamate-induced 45Ca2+ uptake into synaptosomes of rat cortex, % Ca of control (control-100%) ([2]; C 0.5 μM): 64.4 ± 12.4%
- glutamate-induced 45Ca2+ uptake into synaptosomes of rat cortex, % Ca of control (control-100%) ([2]; C 1.0 μM): 61.3 ± 8.1%
- glutamate-induced 45Ca2+ uptake into synaptosomes of rat cortex, % Ca of control (control-100%) ([2]; C 5.0 μM): 83.2 ± 4.1%
- glutamate-induced 45Ca2+ uptake into synaptosomes of rat cortex, % Ca of control (control-100%) ([2]; C 10 μM): 89.3 ± 1.2%
- glutamate-induced 45Ca2+ uptake into synaptosomes of rat cortex, % Ca of control (control-100%) ([2]; C 25 μM): 97.2 ± 8.5%
- glutamate-induced 45Ca2+ uptake into synaptosomes of rat cortex, % Ca of control (control-100%) ([2]; C 50 μM): 98.7 ± 8.8%
- glutamate-induced 45Ca2+ uptake into synaptosomes of rat cortex, % Ca of control (control-100%) ([2]; C 100 μM): 132 ± 2.9%
- glutamate-induced 45Ca2+ uptake into synaptosomes of rat cortex, % Ca of control (control-100%) ([2]; C 100 μM, listed as dimebon): 132%
